# Experimental data published in patent US20240065988A1, “COMBINED USE OF KETAMINE AND RETIGABINE (EZOGABINE) FOR THE TREATMENT OF PSYCHIATRIC DISORDERS” (Yeda Research and Development Co. Ltd., priority 2021, published 2024).
# Tested on: single cells from the ventral hippocampus (vHipp)
# Assay: Single-cell RNA sequencing (scRNA-seq) of the ventral hippocampus after ketamine treatment; differential expression per cell type; on Mean-Ket: unit not given here
# [1] = Astrocytes, ketamine 10 mg/kg i.p.
# [2] = Astrocytes, ketamine 10 mg/kg i.p. vs saline
# [3] = Endothelial, ketamine 10 mg/kg i.p.
# [4] = Endothelial, ketamine 10 mg/kg i.p. vs saline
smiles,measurement,setting,value
"CNC1(c2ccccc2Cl)CCCCC1=O (racemic) [ketamine, (R,S)-ketamine]",Change,"Aarsd1, Glut Neurons",Down
same,Mean-Ket,"Aarsd1, Glut Neurons",1.682
same,logFC,"Aarsd1, Glut Neurons",−0.119
same,Change,"Acad9, Glut Neurons",Up
same,Mean-Ket,"Acad9, Glut Neurons",1.372
same,logFC,"Acad9, Glut Neurons",0.210
same,Change,"Aire, Glut Neurons",Down
same,Mean-Ket,"Aire, Glut Neurons",2.157
same,logFC,"Aire, Glut Neurons",−0.116
same,Change,"Akap5, Astrocytes",Down
same,Mean-Ket,"Akap5, Astrocytes",4.005
same,logFC,"Akap5, Astrocytes",−0.219
same,Aire Mean-Ket,[1],2.361
same,Aktip Mean-Ket,[1],1.656
same,Atg2a Mean-Ket,[1],1.418
same,Calm1 Mean-Ket,[1],2.021
same,Calm2 Mean-Ket,[1],1.730
same,Capza2 Mean-Ket,[1],3.001
same,Cars2 Mean-Ket,[1],2.703
same,Cep89 Mean-Ket,[1],2.822
same,Cox7a2 Mean-Ket,[1],1.052
same,Elp6 Mean-Ket,[1],1.701
same,Fam193a Mean-Ket,[1],2.684
same,Gje1 Mean-Ket,[1],0.961
same,Gmeb1 Mean-Ket,[1],2.962
same,Hadhb Mean-Ket,[1],1.956
same,Haus8 Mean-Ket,[1],1.269
same,Lztr1 Mean-Ket,[1],1.556
same,Mettl3 Mean-Ket,[1],2.842
same,Mrp19 Mean-Ket,[1],2.904
same,Mterf3 Mean-Ket,[1],1.289
same,Nop58 Mean-Ket,[1],2.828
same,P3h3 Mean-Ket,[1],2.495
same,Parp1 Mean-Ket,[1],2.675
same,Polr2c Mean-Ket,[1],2.613
same,Ppan Mean-Ket,[1],2.916
same,Rfc2 Mean-Ket,[1],0.929
same,Rpap1 Mean-Ket,[1],1.265
same,Sec23ip Mean-Ket,[1],2.886
same,Slc23a1 Mean-Ket,[1],2.421
same,Snf8 Mean-Ket,[1],2.945
same,Sumf2 Mean-Ket,[1],1.532
same,Tecr Mean-Ket,[1],1.562
same,Tuba1b Mean-Ket,[1],1.065
same,Tubb2a Mean-Ket,[1],0.960
same,Uba2 Mean-Ket,[1],1.413
same,Vps8 Mean-Ket,[1],2.087
same,Zcchc4 Mean-Ket,[1],0.999
same,Aire Change,[2],Down
same,Aire logFC,[2],−0.106
same,Aktip Change,[2],Down
same,Aktip logFC,[2],−0.119
same,Atg2a Change,[2],Down
same,Atg2a logFC,[2],−0.105
same,Calm1 Change,[2],Down
same,Calm1 logFC,[2],−0.155
same,Calm2 Change,[2],Down
same,Calm2 logFC,[2],−0.130
same,Capza2 Change,[2],Down
same,Capza2 logFC,[2],−0.082
same,Cars2 Change,[2],Down
same,Cars2 logFC,[2],−0.090
same,Cep89 Change,[2],Down
same,Cep89 logFC,[2],−0.075
same,Cox7a2 Change,[2],Down
same,Cox7a2 logFC,[2],−0.144
same,Elp6 Change,[2],Down
same,Elp6 logFC,[2],−0.124
same,Fam193a Change,[2],Down
same,Fam193a logFC,[2],−0.088
same,Gje1 Change,[2],Down
same,Gje1 logFC,[2],−0.108
same,Gmeb1 Change,[2],Down
same,Gmeb1 logFC,[2],−0.074
same,Hadhb Change,[2],Down
same,Hadhb logFC,[2],−0.103
same,Haus8 Change,[2],Down
same,Haus8 logFC,[2],−0.116
same,Lztr1 Change,[2],Down
same,Lztr1 logFC,[2],−0.130
same,Mettl3 Change,[2],Down
same,Mettl3 logFC,[2],−0.077
same,Mrp19 Change,[2],Down
same,Mrp19 logFC,[2],−0.074
same,Mterf3 Change,[2],Down
same,Mterf3 logFC,[2],−0.125
same,Nop58 Change,[2],Down
same,Nop58 logFC,[2],−0.094
same,P3h3 Change,[2],Down
same,P3h3 logFC,[2],−0.092
same,Parp1 Change,[2],Down
same,Parp1 logFC,[2],−0.079
same,Polr2c Change,[2],Down
same,Polr2c logFC,[2],−0.091
same,Ppan Change,[2],Down
same,Ppan logFC,[2],−0.074
same,Rfc2 Change,[2],Down
same,Rfc2 logFC,[2],−0.121
same,Rpap1 Change,[2],Down
same,Rpap1 logFC,[2],−0.125
same,Sec23ip Change,[2],Down
same,Sec23ip logFC,[2],−0.086
same,Slc23a1 Change,[2],Down
same,Slc23a1 logFC,[2],−0.099
same,Snf8 Change,[2],Down
same,Snf8 logFC,[2],−0.074
same,Sumf2 Change,[2],Down
same,Sumf2 logFC,[2],−0.127
same,Tecr Change,[2],Down
same,Tecr logFC,[2],−0.242
same,Tuba1b Change,[2],Down
same,Tuba1b logFC,[2],−0.115
same,Tubb2a Change,[2],Down
same,Tubb2a logFC,[2],−0.113
same,Uba2 Change,[2],Down
same,Uba2 logFC,[2],−0.113
same,Vps8 Change,[2],Down
same,Vps8 logFC,[2],−0.120
same,Zcchc4 Change,[2],Down
same,Zcchc4 logFC,[2],−0.112
same,Change,"Atp5a1, Glut Neurons",Down
same,Mean-Ket,"Atp5a1, Glut Neurons",0.832
same,logFC,"Atp5a1, Glut Neurons",−0.162
same,Change,"Atp5j2, Glut Neurons",Down
same,Mean-Ket,"Atp5j2, Glut Neurons",0.851
same,logFC,"Atp5j2, Glut Neurons",−0.169
same,Change,"Atp5j, Glut Neurons",Down
same,Mean-Ket,"Atp5j, Glut Neurons",1.199
same,logFC,"Atp5j, Glut Neurons",−0.230
same,Change,"Atp6v0e2, Astrocytes",Down
same,Mean-Ket,"Atp6v0e2, Astrocytes",1.529
same,logFC,"Atp6v0e2, Astrocytes",−0.138
same,Change,"Atp5h, Glut Neurons",Down
same,Mean-Ket,"Atp5h, Glut Neurons",1.341
same,logFC,"Atp5h, Glut Neurons",−0.231
same,Change,"Atxn2, Glut Neurons",Down
same,Mean-Ket,"Atxn2, Glut Neurons",1.752
same,logFC,"Atxn2, Glut Neurons",−0.131
same,Change,"Cars2, Glut Neurons",Down
same,Mean-Ket,"Cars2, Glut Neurons",2.514
same,logFC,"Cars2, Glut Neurons",−0.095
same,Change,"Casc4, Glut Neurons",Down
same,Mean-Ket,"Casc4, Glut Neurons",3.269
same,logFC,"Casc4, Glut Neurons",−0.109
same,Change,"Ccdc62, Glut Neurons",Down
same,Mean-Ket,"Ccdc62, Glut Neurons",1.370
same,logFC,"Ccdc62, Glut Neurons",−0.131
same,Change,"Cep89, Glut Neurons",Down
same,Mean-Ket,"Cep89, Glut Neurons",2.584
same,logFC,"Cep89, Glut Neurons",−0.104
same,Change,"Chn1, Glut Neurons",Down
same,Mean-Ket,"Chn1, Glut Neurons",1.219
same,logFC,"Chn1, Glut Neurons",−0.192
same,Change,"Chpt1, Glut Neurons",Down
same,Mean-Ket,"Chpt1, Glut Neurons",2.768
same,logFC,"Chpt1, Glut Neurons",−0.092
same,Change,"Cox6b1, Glut Neurons",Down
same,Mean-Ket,"Cox6b1, Glut Neurons",1.063
same,logFC,"Cox6b1, Glut Neurons",−0.161
same,Change,"Cpe, Glut Neurons",Down
same,Mean-Ket,"Cpe, Glut Neurons",1.060
same,logFC,"Cpe, Glut Neurons",−0.123
same,Change,"Cxcr2, Glut Neurons",Down
same,Mean-Ket,"Cxcr2, Glut Neurons",2.721
same,logFC,"Cxcr2, Glut Neurons",−0.098
same,Change,"D3Ertd254e, Glut Neurons",Down
same,Mean-Ket,"D3Ertd254e, Glut Neurons",1.540
same,logFC,"D3Ertd254e, Glut Neurons",−0.179
same,Change,"D6Wsu163e, Glut Neurons",Down
same,Mean-Ket,"D6Wsu163e, Glut Neurons",2.314
same,logFC,"D6Wsu163e, Glut Neurons",−0.101
same,Change,"Dars, Glut Neurons",Down
same,Mean-Ket,"Dars, Glut Neurons",1.380
same,logFC,"Dars, Glut Neurons",−0.115
same,Change,"Dhx30, Glut Neurons",Down
same,Mean-Ket,"Dhx30, Glut Neurons",1.310
same,logFC,"Dhx30, Glut Neurons",−0.133
same,Change,"Dpp10, Glut Neurons",Up
same,Mean-Ket,"Dpp10, Glut Neurons",1.344
same,logFC,"Dpp10, Glut Neurons",0.216
same,Change,"Eef1akmt3, Astrocytes",Up
same,Mean-Ket,"Eef1akmt3, Astrocytes",1.918
same,logFC,"Eef1akmt3, Astrocytes",0.336
same,Change,"Eif4a2, Glut Neurons",Down
same,Mean-Ket,"Eif4a2, Glut Neurons",1.524
same,logFC,"Eif4a2, Glut Neurons",−0.234
same,Change,"Enah, Glut Neurons",Down
same,Mean-Ket,"Enah, Glut Neurons",2.212
same,logFC,"Enah, Glut Neurons",−0.108
same,Akap5 Mean-Ket,[3],3.573
same,Eef1akmt3 Mean-Ket,[3],1.735
same,Ilf2 Mean-Ket,[3],1.206
same,Lrrc17 Mean-Ket,[3],2.859
same,Saa3 Mean-Ket,[3],1.407
same,Slco1a4 Mean-Ket,[3],1.231
same,Vps8 Mean-Ket,[3],1.667
same,Akap5 Change,[4],Down
same,Akap5 logFC,[4],−0.447
same,Eef1akmt3 Change,[4],Up
same,Eef1akmt3 logFC,[4],0.511
same,Ilf2 Change,[4],Up
same,Ilf2 logFC,[4],0.361
same,Lrrc17 Change,[4],Down
same,Lrrc17 logFC,[4],−0.407
same,Saa3 Change,[4],Up
same,Saa3 logFC,[4],0.366
same,Slco1a4 Change,[4],Up
same,Slco1a4 logFC,[4],0.415
same,Vps8 Change,[4],Down
same,Vps8 logFC,[4],−0.398
same,Change,"Exosc5, Glut Neurons",Down
same,Mean-Ket,"Exosc5, Glut Neurons",1.196
same,logFC,"Exosc5, Glut Neurons",−0.109
same,Change,"Fam193a, Glut Neurons",Down
same,Mean-Ket,"Fam193a, Glut Neurons",2.472
same,logFC,"Fam193a, Glut Neurons",−0.101
same,Change,"Fgd4, Glut Neurons",Up
same,Mean-Ket,"Fgd4, Glut Neurons",2.397
same,logFC,"Fgd4, Glut Neurons",0.144
same,Change,"Foxr1, Glut Neurons",Down
same,Mean-Ket,"Foxr1, Glut Neurons",2.380
same,logFC,"Foxr1, Glut Neurons",−0.113
same,Change,"Fubp1, Glut Neurons",Down
same,Mean-Ket,"Fubp1, Glut Neurons",2.828
same,logFC,"Fubp1, Glut Neurons",−0.093
same,Change,"Furin, Glut Neurons",Down
same,Mean-Ket,"Furin, Glut Neurons",1.335
same,logFC,"Furin, Glut Neurons",−0.132
same,Change,"Gapdh-ps15, Astrocytes",Down
same,Mean-Ket,"Gapdh-ps15, Astrocytes",1.333
same,logFC,"Gapdh-ps15, Astrocytes",−0.157
same,Change,"Gclm, Glut Neurons",Down
same,Mean-Ket,"Gclm, Glut Neurons",0.984
same,logFC,"Gclm, Glut Neurons",−0.113
same,Change,"Gmeb1, Glut Neurons",Down
same,Mean-Ket,"Gmeb1, Glut Neurons",2.782
same,logFC,"Gmeb1, Glut Neurons",−0.087
same,Change,"Golga3, Astrocytes",Down
same,Mean-Ket,"Golga3, Astrocytes",1.515
same,logFC,"Golga3, Astrocytes",−0.136
same,Change,"H2-T23, Glut Neurons",Down
same,Mean-Ket,"H2-T23, Glut Neurons",1.757
same,logFC,"H2-T23, Glut Neurons",−0.173
same,Change,"Hook3, Glut Neurons",Down
same,Mean-Ket,"Hook3, Glut Neurons",2.556
same,logFC,"Hook3, Glut Neurons",−0.089
same,Change,"Hsd3b2, Glut Neurons",Up
same,Mean-Ket,"Hsd3b2, Glut Neurons",1.162
same,logFC,"Hsd3b2, Glut Neurons",0.193
same,Change,"Il17ra, Glut Neurons",Up
same,Mean-Ket,"Il17ra, Glut Neurons",1.490
same,logFC,"Il17ra, Glut Neurons",0.252
same,Change,"Ilf2, Astrocytes",Up
same,Mean-Ket,"Ilf2, Astrocytes",1.350
same,logFC,"Ilf2, Astrocytes",0.295
same,Change,"Ipo7, Glut Neurons",Down
same,Mean-Ket,"Ipo7, Glut Neurons",1.687
same,logFC,"Ipo7, Glut Neurons",−0.119
same,Change,"Kcnj16, Glut Neurons",Up
same,Mean-Ket,"Kcnj16, Glut Neurons",1.052
same,logFC,"Kcnj16, Glut Neurons",0.227
same,Change,"Kif3a, Glut Neurons",Down
same,Mean-Ket,"Kif3a, Glut Neurons",1.198
same,logFC,"Kif3a, Glut Neurons",−0.141
same,Change,"Loxl2, Glut Neurons",Down
same,Mean-Ket,"Loxl2, Glut Neurons",2.605
same,logFC,"Loxl2, Glut Neurons",−0.098
same,Change,"Lrrc17, Astrocytes",Down
same,Mean-Ket,"Lrrc17, Astrocytes",3.291
same,logFC,"Lrrc17, Astrocytes",−0.192
same,Change,"Lsm8, Glut Neurons",Down
